# Experimental data published in article PMC5562305, “Impact of novel palmitoylated prolactin-releasing peptide analogs on metabolic changes in mice with diet-induced obesity” (PLoS ONE, 2017).
# Non-standard residues stand in square brackets, D forms with d. Residues, ends and D or L forms follow the SMILES beside them. NMeF = CN[C@@H](Cc1ccccc1)C(=O)O
# Target: T1, human NPFF2 (Homo sapiens, UniProt Q9Y5X5)
# T1 construct: purchased Perkin Elmer; host or cells: CHO-K1 cell membranes
# Test: Competitive binding of 125I-1DMe to human NPFF2 receptor membranes
# Settings: membranes of CHO-K1 cells overexpressing NPFF2, 0.1 nM radioligand, Cheng-Prusoff; mean ± SEM; SEM
# Description: CHO-K1 cells expressing the GPR10 receptor (Thermo Fisher Scientific Inc., Waltham, MA, USA) were grown according to the manufacturer's instructions. Saturation and competitive binding experiments were performed according to the methods of Motulsky and Neubig. […] The experiments were performed on plated cells that were incubated for 60 min at 25°C. Non-specific binding was determined using 10^−5 M PrRP31. The binding assays involving human NPFF2 receptor membranes obtained from Perkin Elmer were performed as described in [18].
# Data are presented as the means ± SEM. The competitive binding curves were plotted using GraphPad software (San Diego, CA, USA), and the best fits were compared for single-binding-site models (IC50 values were obtained from nonlinear regression analysis). Inhibition constants (Ki) were calculated from the IC50 values using the Cheng-Prusoff equation [23]. The concentration of the radioligand was 0.1 nM for cell membranes of CHO-K1 cells overexpressing NPFF2 and 0.03 nM for CHO-K1 cells overexpressing GPR10.
# T1 sequence (Q9Y5X5 whole entry): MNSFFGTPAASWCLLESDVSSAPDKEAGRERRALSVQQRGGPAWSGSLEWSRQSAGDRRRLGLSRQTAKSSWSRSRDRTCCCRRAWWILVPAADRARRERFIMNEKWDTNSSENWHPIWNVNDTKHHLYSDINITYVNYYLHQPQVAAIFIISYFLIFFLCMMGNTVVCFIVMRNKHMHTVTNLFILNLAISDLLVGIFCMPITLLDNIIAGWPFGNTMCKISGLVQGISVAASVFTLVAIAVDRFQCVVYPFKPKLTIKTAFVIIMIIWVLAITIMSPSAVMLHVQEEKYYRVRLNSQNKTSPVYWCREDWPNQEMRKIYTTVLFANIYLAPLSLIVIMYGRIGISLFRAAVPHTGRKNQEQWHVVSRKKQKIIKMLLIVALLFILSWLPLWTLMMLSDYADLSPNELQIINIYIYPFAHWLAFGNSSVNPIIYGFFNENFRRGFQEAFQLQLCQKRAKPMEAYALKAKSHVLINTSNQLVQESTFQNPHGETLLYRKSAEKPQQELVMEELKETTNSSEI
row,Ki [nM],Structure (SMILES)
1,1.8 ± 0.54,"CC(C)C[C@H](NC(=O)[C@H](N)Cc1ccc(O)cc1)C(=O)N(C)[C@@H](Cc1ccccc1)C(=O)N[C@@H](CCC(N)=O)C(=O)N1CCC[C@H]1C(=O)N[C@@H](CCC(N)=O)C(=O)N[C@@H](CCCN=C(N)N)C(=O)N[C@@H](Cc1ccccc1)C(N)=O [1DMe, reference compound] (H-[dY]L[NMeF]QPQRF-NH2)"
2,50 ± 24.3,"CC[C@H](C)[C@H](NC(=O)CNC(=O)[C@H](CCCNC(=N)N)NC(=O)[C@H](CO)NC(=O)[C@H](C)NC(=O)[C@H](Cc1ccc(O)cc1)NC(=O)[C@H](Cc1c[nH]c2ccccc12)NC(=O)[C@H](C)NC(=O)[C@@H]1CCCN1C(=O)[C@H](CC(N)=O)NC(=O)[C@@H](NC(=O)[C@H](CC(=O)O)NC(=O)[C@@H]1CCCN1C(=O)[C@@H](NC(=O)[C@H](CCCNC(=N)N)NC(=O)[C@@H](NC(=O)[C@H](CCC(=O)O)NC(=O)[C@H](CCSC)NC(=O)[C@H](CO)NC(=O)[C@H](Cc1c[nH]cn1)NC(=O)[C@H](CCCNC(=N)N)NC(=O)[C@H](Cc1c[nH]cn1)NC(=O)[C@@H](NC(=O)[C@H](CCCNC(=N)N)NC(=O)[C@@H](N)CO)[C@@H](C)O)[C@@H](C)CC)[C@@H](C)O)[C@@H](C)CC)C(=O)N[C@@H](CCCNC(=N)N)C(=O)N1CCC[C@H]1C(=O)N[C@H](C(=O)NCC(=O)N[C@@H](CCCNC(=N)N)C(=O)N[C@@H](Cc1ccccc1)C(N)=O)C(C)C [human PrRP31, reference compound]"
